From patent publication EP0373216A1, “CEPHALOSPORIN COMPOUNDS OR THEIR SALTS, PROCESS FOR THEIR PREPARATION, AND PARMACEUTICAL COMPOSITIONS” (TEIJIN LIMITED, priority 1987, dated 1988)
Converted amounts (≈) assume the structure as drawn. Where two headings read alike, the source gives them in different places.

What was measured:
Test in all cases: In vitro antibacterial activity, agar disc dilution method
Type in all cases: cell-based
B. subtilis ATCC 6633 = conditions: Bacillus subtilis, read-out: minimum growth inhibitory concentration (MIC)
Procedure: (§1) An in vitro antibacterial activity was measured by an agar disc dilution method.
(§2) Varied test bacteria were cultivated overnight in triptophane-soybroth. A Mueller Hinton agar containing the compound of this invention in varied concentrations was streaked with one platinum loopful of each of the bacteria (number of living cells 10^6/ml).

E. cloacae 963 = conditions: read-out: minimum growth inhibitory concentration (MIC)
Procedure: as §1, §2

E. coli K12C600 = conditions: Escherichia coli, read-out: minimum growth inhibitory concentration (MIC)
Procedure: as §1, §2

K. pneumoniae PC I 602 = conditions: Klebsiella pneumoniae, read-out: minimum growth inhibitory concentration (MIC)
Procedure: as §1, §2

M. euteus ATCC 9341 = conditions: read-out: minimum growth inhibitory concentration (MIC)
Procedure: as §1, §2

P. aeruginosa NCTC 1049 = conditions: Pseudomonas aeruginosa, read-out: minimum growth inhibitory concentration (MIC)
Procedure: as §1, §2

P. morganii IFO 3445 = conditions: Morganella morganii, read-out: minimum growth inhibitory concentration (MIC)
Procedure: as §1, §2

P. rettgeric IFO3850 = conditions: read-out: minimum growth inhibitory concentration (MIC)
Procedure: as §1, §2

P. vulgalis OX-19 = conditions: read-out: minimum growth inhibitory concentration (MIC)
Procedure: as §1, §2

S. aureus Terajima = conditions: Staphylococcus aureus, read-out: minimum growth inhibitory concentration (MIC)
Procedure: as §1, §2

S. enteritidis G14 = conditions: Salmonella enterica, read-out: minimum growth inhibitory concentration (MIC)
Procedure: as §1, §2

S. marcescens I AM 1184 = conditions: Serratia marcescens, read-out: minimum growth inhibitory concentration (MIC)
Procedure: as §1, §2

S. pyogenes Cook = conditions: Streptococcus pyogenes, read-out: minimum growth inhibitory concentration (MIC)
Procedure: as §1, §2

S. typhic 901 = conditions: Mueller Hinton agar, 10^6/ml, 37°C for 16 hours, read-out: minimum growth inhibitory concentration (MIC)
Procedure: as §1, §2

[1] = ATCC6633, B. subtilis ATCC 6633, Mueller Hinton agar, 10^6/ml, 37°C for 16 hours
[2] = Enterobacter cloacae, E. cloacae 963, Mueller Hinton agar, 10^6/ml, 37°C for 16 hours
[3] = E. coli K12C600, Mueller Hinton agar, 10^6/ml, 37°C for 16 hours
[4] = PCI602, K. pneumoniae PC I 602, Mueller Hinton agar, 10^6/ml, 37°C for 16 hours
[5] = M. euteus ATCC 9341, Mueller Hinton agar, 10^6/ml, 37°C for 16 hours
[6] = NCTC1049, P. aeruginosa NCTC 1049, Mueller Hinton agar, 10^6/ml, 37°C for 16 hours
[7] = IFO3445, P. morganii IFO 3445, Mueller Hinton agar, 10^6/ml, 37°C for 16 hours
[8] = P. rettgeric IFO3850, Mueller Hinton agar, 10^6/ml, 37°C for 16 hours
[9] = P. vulgalis OX-19, Mueller Hinton agar, 10^6/ml, 37°C for 16 hours
[10] = S. aureus Terajima, Mueller Hinton agar, 10^6/ml, 37°C for 16 hours
[11] = S. enteritidis G14, Mueller Hinton agar, 10^6/ml, 37°C for 16 hours
[12] = IAM1184, S. marcescens I AM 1184, Mueller Hinton agar, 10^6/ml, 37°C for 16 hours
[13] = S. pyogenes Cook, Mueller Hinton agar, 10^6/ml, 37°C for 16 hours

Compound | MIC (S. typhic 901) [µg/mL] | MIC (B. subtilis ATCC 6633; [1]) [µg/mL] | MIC (E. cloacae 963; [2]) [µg/mL] | MIC (E. coli K12C600; [3]) [µg/mL] | MIC (K. pneumoniae PC I 602; [4]) [µg/mL] | MIC (M. euteus ATCC 9341; [5]) [µg/mL] | MIC (P. aeruginosa NCTC 1049; [6]) [µg/mL] | MIC (P. morganii IFO 3445; [7]) [µg/mL] | MIC (P. rettgeric IFO3850; [8]) [µg/mL] | MIC (P. vulgalis OX-19; [9]) [µg/mL] | MIC (S. aureus Terajima; [10]) [µg/mL] | MIC (S. enteritidis G14; [11]) [µg/mL] | MIC (S. marcescens I AM 1184; [12]) [µg/mL] | MIC (S. pyogenes Cook; [13]) [µg/mL] | further results
CC(C)(O/N=C(\C(=O)N[C@@H]1C(=O)N2C(C(=O)[O-])=C(C[n+]3ccccc3)CS[C@H]12)c1csc(N)n1)C(=O)O [CAZ, Ceftazidime, reference compound] | 0.1 (≈ 0.183 µM) |  |  |  |  |  |  |  |  |  |  |  |  |  | MIC (B. subtilis ATCC 6633; ATCC6633, 16 h): 3.1 µg/mL (≈ 5.67 µM); MIC (E. cloacae 963; Enterobacter cloacae, 963, 16 h): 0.1 µg/mL (≈ 0.183 µM); MIC (E. coli K12C600; K12C600, 16 h): 0.2 µg/mL (≈ 0.366 µM); MIC (K. pneumoniae PC I 602; PCI602, 16 h): 0.1 µg/mL (≈ 0.183 µM); MIC (M. euteus ATCC 9341; 16 h): 1.6 µg/mL (≈ 2.93 µM); MIC (P. aeruginosa NCTC 1049; NCTC1049, 16 h): 0.8 µg/mL (≈ 1.46 µM); MIC (P. morganii IFO 3445; IFO3445, 16 h): 0.01 µg/mL (≈ 0.0183 µM); MIC (P. rettgeric IFO3850; 16 h): 0.01 µg/mL (≈ 0.0183 µM); MIC (P. vulgalis OX-19; 16 h): 0.01 µg/mL (≈ 0.0183 µM); MIC (S. aureus Terajima; 16 h): 3.1 µg/mL (≈ 5.67 µM); MIC (S. enteritidis G14; ENTERITIDIS, 16 h): 0.1 µg/mL (≈ 0.183 µM); MIC (S. marcescens I AM 1184; IAM1184, 16 h): 0.03 µg/mL (≈ 0.0549 µM); MIC (S. pyogenes Cook; 16 h): 1.6 µg/mL (≈ 2.93 µM)
CC(C)(O/N=C(\C(=O)N[C@@H]1C(=O)N2C(C(=O)[O-])=C(C[n+]3ccc4cc(O)c(O)cc4c3)CS[C@H]12)c1csc(N)n1)C(=O)O [Compound A, (6R,7R)-7-[(Z)-2-(2-amino-l,3-thiazol-4-yl)-2-(2-carboxypropyl-2-yloxyimino)acetamide]-3-(6,7-dihydroxy-2-isoquinolinium)methyl-3-cephem-4-carboxylate, reference compound] | < 0.01 | 0.4 (≈ 0.636 µM) | < 0.01 | < 0.01 | < 0.01 | 0.2 (≈ 0.318 µM) | 0.02 (≈ 0.0318 µM) | < 0.01 | < 0.01 | < 0.01 | 6.2 (≈ 9.86 µM) | < 0.01 | < 0.01 | 1.6 (≈ 2.55 µM) | 
Nc1nc(/C(=N/Oc2ccccc2)C(=O)N[C@@H]2C(=O)N3C(C(=O)[O-])=C(C[n+]4ccc5cc(O)c(O)cc5c4)CS[C@H]23)cs1 [Compound I, (6R,7R)-7-[(Z)-2-(2-amino-1,3-thiazol-4-yl)-2-phenoxy-iminoacetamide]-3-(6,7-dihydroxy-2-isoquinolinium)methyl-3-cephem-4-carboxylate] | < 0.01 | 0.1 (≈ 0.162 µM) | < 0.01 | < 0.01 | < 0.01 | 0.1 (≈ 0.162 µM) | 0.1 (≈ 0.162 µM) | < 0.01 | < 0.01 | < 0.01 | 0.8 (≈ 1.29 µM) | < 0.01 | < 0.01 | 0.2 (≈ 0.323 µM) | 
Nc1nc(/C(=N/Oc2ccccc2Cl)C(=O)N[C@@H]2C(=O)N3C(C(=O)[O-])=C(C[n+]4ccc5cc(O)c(O)cc5c4)CS[C@H]23)cs1 [Compound II, (6R,7R)-7-[(Z)-2-(2-amino-1,3-thiazol-4-yl)-2-(o-chlorophenoxyimino)-acetamide]-3-(6,7-dihydroxy-2-isoquinolinium)methyl-3-cephem-4-carboxylate] | < 0.01 | 1.6 (≈ 2.45 µM) | < 0.01 | < 0.01 | < 0.01 | 0.8 (≈ 1.22 µM) | 0.8 (≈ 1.22 µM) | < 0.01 | < 0.01 | < 0.01 | 0.2 (≈ 0.306 µM) | < 0.01 | < 0.01 | 0.2 (≈ 0.306 µM) | 
Nc1nc(/C(=N/Oc2ccc(Cl)cc2)C(=O)N[C@@H]2C(=O)N3C(C(=O)[O-])=C(C[n+]4ccc5cc(O)c(O)cc5c4)CS[C@H]23)cs1 [Compound III] | < 0.01 | 0.4 (≈ 0.612 µM) | 0.03 (≈ 0.0459 µM) | < 0.01 | < 0.01 | 0.2 (≈ 0.306 µM) | 0.8 (≈ 1.22 µM) | 0.01 (≈ 0.0153 µM) | < 0.01 | < 0.01 | 0.8 (≈ 1.22 µM) | < 0.01 | < 0.01 | 0.1 (≈ 0.153 µM) | 
Nc1nc(/C(=N/Oc2ccc(-c3ccccc3)cc2)C(=O)N[C@@H]2C(=O)N3C(C(=O)[O-])=C(C[n+]4ccc5cc(O)c(O)cc5c4)CS[C@H]23)cs1 [Compound IV, (6R,7R)-7-[(Z)-2-(2-amino-1,3-thiazol-4-yl)-2-(p-phenylphenoxy)iminoacetamide]-3-(6,7-dihydroxy-2-isoquinolinium)methyl-3-cephem-4-carboxylate] | < 0.01 | 1.6 (≈ 2.3 µM) | < 0.01 | 0.02 (≈ 0.0288 µM) | 0.02 (≈ 0.0288 µM) | 0.8 (≈ 1.15 µM) | 0.8 (≈ 1.15 µM) | < 0.01 | < 0.01 | < 0.01 | 1.6 (≈ 2.3 µM) | 0.02 (≈ 0.0288 µM) | < 0.01 | 0.4 (≈ 0.576 µM) | 
CC(=O)Oc1cc2cc[n+](CC3=C(C(=O)[O-])N4C(=O)[C@@H](NC(=O)/C(=N\Oc5ccccc5)c5csc(N)n5)[C@H]4SC3)cc2cc1OC(C)=O [Compound IX, (6R,7R)-7-[(Z)-2-(2-amino-1,3-thiazol-4-yl)-2-phenoxyiminoacetamide]-3-(6,7-diacetoxy-2-isoquinolinium)methyl-3-cephem-4-carboxylate] | < 0.01 | 0.8 (≈ 1.14 µM) | 0.02 (≈ 0.0285 µM) | 0.01 (≈ 0.0142 µM) | < 0.01 | 1.6 (≈ 2.28 µM) | 0.1 (≈ 0.142 µM) | < 0.01 | < 0.01 | < 0.01 | 1.6 (≈ 2.28 µM) | 0.02 (≈ 0.0285 µM) | < 0.01 | 0.4 (≈ 0.569 µM) | 
Nc1nc(/C(=N/Oc2ccccc2)C(=O)N[C@@H]2C(=O)N3C(C(=O)[O-])=C(C[n+]4cc(C(=O)O)c5cc(O)c(O)cc5c4)CS[C@H]23)cs1 [Compound VI, (6R,7R)-7-[(Z)-2-(2-amino-1,3-thiazol-4-yl)-2-phenoxyiminoacetamide]-3-(4-carboxy-6,7-dihydroxy-2-isoquinolinium)methyl-3-cephem-4-carboxylate] | < 0.01 | 1.6 (≈ 2.41 µM) | 0.05 (≈ 0.0755 µM) | 0.02 (≈ 0.0302 µM) | 0.02 (≈ 0.0302 µM) | 0.8 (≈ 1.21 µM) | 3.1 (≈ 4.68 µM) | 0.02 (≈ 0.0302 µM) | 0.02 (≈ 0.0302 µM) | < 0.01 | 3.1 (≈ 4.68 µM) | < 0.01 | < 0.01 | 0.8 (≈ 1.21 µM) | 
Nc1nc(/C(=N/Oc2ccccc2)C(=O)N[C@@H]2C(=O)N3C(C(=O)[O-])=C(C[n+]4cc(C(=O)O)c5cc(O)c(O)cc5c4Cl)CS[C@H]23)cs1 [Compound VII, (6R,7R)-7-[(Z)-2-(2-amino-1,3-thiazol-4-yl)-2-phenoxyiminoacetamide]-3-(l-chloro-4-carboxy-6,7-dihydroxy-2-isoquinolinium)methyl-3-cephem-4-carboxylate] |  | 1.6 (≈ 2.3 µM) | 0.1 (≈ 0.143 µM) | 0.03 (≈ 0.043 µM) | 0.03 (≈ 0.043 µM) | 0.8 (≈ 1.15 µM) | 1.6 (≈ 2.3 µM) | 0.03 (≈ 0.043 µM) | 0.03 (≈ 0.043 µM) | 0.02 (≈ 0.0287 µM) | 3.1 (≈ 4.45 µM) | 0.02 (≈ 0.0287 µM) | 0.03 (≈ 0.043 µM) | 0.4 (≈ 0.574 µM) | 
Nc1nc(/C(=N/Oc2cccc(C(=O)O)c2)C(=O)N[C@@H]2C(=O)N3C(C(=O)[O-])=C(C[n+]4ccc5cc(O)c(O)cc5c4)CS[C@H]23)cs1 [Compound VIII] | 0.03 (≈ 0.0453 µM) | 0.3 (≈ 0.453 µM) | 0.1 (≈ 0.151 µM) | 0.05 (≈ 0.0755 µM) | 0.03 (≈ 0.0453 µM) | 1.6 (≈ 2.41 µM) | 0.2 (≈ 0.302 µM) | 0.03 (≈ 0.0453 µM) | 0.02 (≈ 0.0302 µM) | 0.02 (≈ 0.0302 µM) | 3.1 (≈ 4.68 µM) | 0.03 (≈ 0.0453 µM) | 0.1 (≈ 0.151 µM) | 0.8 (≈ 1.21 µM) | 
Nc1nc(/C(=N/Oc2ccc(CC(=O)O)cc2)C(=O)N[C@@H]2C(=O)N3C(C(=O)[O-])=C(C[n+]4ccc5cc(O)c(O)cc5c4)CS[C@H]23)cs1 [Compound V] | 0.02 (≈ 0.0296 µM) | 1.6 (≈ 2.36 µM) | 0.05 (≈ 0.0739 µM) | 0.02 (≈ 0.0296 µM) | 0.03 (≈ 0.0443 µM) | 1.6 (≈ 2.36 µM) | 0.05 (≈ 0.0739 µM) | < 0.01 | < 0.01 | < 0.01 | 1.6 (≈ 2.36 µM) | 0.02 (≈ 0.0296 µM) | 0.8 (≈ 1.18 µM) | 0.8 (≈ 1.18 µM) | 
